Values after ≈ are worked out from the molar mass of the structure shown.
Columns and labels:
Assay type in all cases: functional
Klebsiella pneumoniae [1] = assay: Antimicrobial activity against ESBL-positive Klebsiella pneumoniae 17829 by Etest
Klebsiella pneumoniae [2] = assay: Antimicrobial activity against ESBL-positive Klebsiella pneumoniae 71697 harboring porin OmpK36V mutant gene by Etest
Klebsiella pneumoniae [3] = assay: Antimicrobial activity against ESBL-positive Klebsiella pneumoniae 26077 harboring porin OmpK36V mutant gene by Etest
Klebsiella pneumoniae [4] = assay: Antimicrobial activity against ESBL-positive Klebsiella pneumoniae 17049 harboring porin OmpK36V mutant gene by Etest
Klebsiella pneumoniae [5] = assay: Antimicrobial activity against ESBL-positive Klebsiella pneumoniae 69928 harboring porin OmpK36V mutant gene by Etest
Klebsiella pneumoniae [6] = assay: Antimicrobial activity against ESBL-positive Klebsiella pneumoniae 16830 harboring porin OmpK36 gene by Etest
Klebsiella pneumoniae [7] = assay: Antimicrobial activity against ESBL-positive Klebsiella pneumoniae 6267 harboring porin OmpK36V mutant gene by Etest
Klebsiella pneumoniae [8] = assay: Antimicrobial activity against ESBL-positive Klebsiella pneumoniae 29830 harboring porin OmpK36V mutant gene by Etest
Klebsiella pneumoniae [9] = assay: Antimicrobial activity against ESBL-positive Klebsiella pneumoniae 17830 harboring porin OmpK36V mutant gene by Etest
Klebsiella pneumoniae [10] = assay: Antimicrobial activity against ESBL-positive Klebsiella pneumoniae 29459 harboring porin OmpK36 gene by Etest
Klebsiella pneumoniae [11] = assay: Antimicrobial activity against ESBL-positive Klebsiella pneumoniae 18567 harboring porin OmpK36V mutant gene by Etest
Klebsiella pneumoniae [12] = assay: Antimicrobial activity against ESBL-negative Klebsiella pneumoniae 299332 harboring porin OmpK36 gene by Etest
Klebsiella pneumoniae [13] = assay: Antimicrobial activity against ESBL-positive Klebsiella pneumoniae 18260 by Etest
Klebsiella pneumoniae [14] = assay: Antimicrobial activity against ESBL-positive Klebsiella pneumoniae 50748 harboring porin OmpK36 gene by Etest
Klebsiella pneumoniae [15] = assay: Antimicrobial activity against ESBL-negative Klebsiella pneumoniae 30018 harboring porin OmpK35 gene by Etest
Klebsiella pneumoniae [16] = assay: Antimicrobial activity against ESBL-positive Klebsiella pneumoniae 25008 by Etest
Klebsiella pneumoniae [17] = assay: Antimicrobial activity against ESBL-positive Klebsiella pneumoniae 16855 harboring porin OmpK36 and OmpK35 genes by Etest
Klebsiella pneumoniae [18] = assay: Antimicrobial activity against ESBL-positive Klebsiella pneumoniae 19039 harboring porin OmpK36V mutant gene by Etest
Klebsiella pneumoniae [19] = assay: Antimicrobial activity against ESBL-positive Klebsiella pneumoniae 18918 harboring porin OmpK36V mutant gene by Etest
Klebsiella pneumoniae [20] = assay: Antimicrobial activity against ESBL-positive Klebsiella pneumoniae 287942 harboring porin OmpK36 gene by Etest
Klebsiella pneumoniae [21] = assay: Antimicrobial activity against ESBL-positive Klebsiella pneumoniae 17834 harboring porin OmpK36V mutant gene by Etest
Klebsiella pneumoniae [22] = assay: Antimicrobial activity against ESBL-positive Klebsiella pneumoniae 31750 harboring porin OmpK36 gene by Etest
Klebsiella pneumoniae [23] = assay: Antimicrobial activity against ESBL-positive Klebsiella pneumoniae 11932 harboring porin OmpK36 gene by Etest
Klebsiella pneumoniae [24] = assay: Antimicrobial activity against ESBL-positive Klebsiella pneumoniae 69036 harboring porin OmpK36V mutant gene by Etest
Klebsiella pneumoniae [25] = assay: Antimicrobial activity against ESBL-positive Klebsiella pneumoniae 18260 harboring pSHA2-encoded porin OmpK36 gene by Etest
Klebsiella pneumoniae [26] = assay: Antimicrobial activity against ESBL-positive Klebsiella pneumoniae 17829 harboring pSHA2-encoded porin OmpK36 gene by Etest

Row | Compound | MIC (Klebsiella pneumoniae [1]) | MIC (Klebsiella pneumoniae [2]) | MIC (Klebsiella pneumoniae [3]) | MIC (Klebsiella pneumoniae [4]) | MIC (Klebsiella pneumoniae [5]) | MIC (Klebsiella pneumoniae [6]) | MIC (Klebsiella pneumoniae [7]) | MIC (Klebsiella pneumoniae [8]) | MIC (Klebsiella pneumoniae [9]) | MIC (Klebsiella pneumoniae [10]) | MIC (Klebsiella pneumoniae [11]) | MIC (Klebsiella pneumoniae [13]) | MIC (Klebsiella pneumoniae [14]) | MIC (Klebsiella pneumoniae [15]) | MIC (Klebsiella pneumoniae [16]) | MIC (Klebsiella pneumoniae [18]) | MIC (Klebsiella pneumoniae [19]) | MIC (Klebsiella pneumoniae [21]) | MIC (Klebsiella pneumoniae [23]) | MIC (Klebsiella pneumoniae [24]) | also measured
1 | CO/N=C(\C(=O)N[C@@H]1C(=O)N2C(C(=O)O)=C(COC(C)=O)CS[C@H]12)c1csc(N)n1 [CEFOTAXIME] | > 32 mg/L | > 32 mg/L | > 32 mg/L | > 32 mg/L | > 32 mg/L | > 32 mg/L | > 32 mg/L | > 32 mg/L | > 32 mg/L | > 32 mg/L | > 32 mg/L | > 32 mg/L | > 32 mg/L | 0.094 mg/L (≈ 0.206 µM) | > 32 mg/L | > 32 mg/L | > 32 mg/L | > 32 mg/L | > 32 mg/L | > 32 mg/L | MIC (Klebsiella pneumoniae [12]): 0.125 mg/L (≈ 0.274 µM); MIC (Klebsiella pneumoniae [17]): > 32 mg/L; MIC (Klebsiella pneumoniae [20]): > 32 mg/L; MIC (Klebsiella pneumoniae [22]): > 32 mg/L
2 | C[C@@H](O)[C@H]1C(=O)N2C(C(=O)O)=C(SCCNC=N)C[C@H]12 [IMIPENEM ANHYDROUS] | 12 mg/L (≈ 40.1 µM) | 0.19 mg/L (≈ 0.635 µM) | 0.19 mg/L (≈ 0.635 µM) | 0.25 mg/L (≈ 0.835 µM) | 0.5 mg/L (≈ 1.67 µM) | 0.125 mg/L (≈ 0.418 µM) | 0.5 mg/L (≈ 1.67 µM) | 0.19 mg/L (≈ 0.635 µM) | 0.19 mg/L (≈ 0.635 µM) | 0.19 mg/L (≈ 0.635 µM) | 0.19 mg/L (≈ 0.635 µM) | 12 mg/L (≈ 40.1 µM) | 0.25 mg/L (≈ 0.835 µM) | 0.25 mg/L (≈ 0.835 µM) | 1 mg/L (≈ 3.34 µM) | 0.19 mg/L (≈ 0.635 µM) | 0.19 mg/L (≈ 0.635 µM) | 0.19 mg/L (≈ 0.635 µM) | 0.19 mg/L (≈ 0.635 µM) | 0.19 mg/L (≈ 0.635 µM) | MIC (Klebsiella pneumoniae [25]): 1 mg/L (≈ 3.34 µM); MIC (Klebsiella pneumoniae [26]): 1 mg/L (≈ 3.34 µM); MIC (Klebsiella pneumoniae [12]): 0.25 mg/L (≈ 0.835 µM); MIC (Klebsiella pneumoniae [17]): 0.25 mg/L (≈ 0.835 µM); MIC (Klebsiella pneumoniae [20]): 0.19 mg/L (≈ 0.635 µM); MIC (Klebsiella pneumoniae [22]): 0.19 mg/L (≈ 0.635 µM)
3 | CO[C@@]1(NC(=O)Cc2cccs2)C(=O)N2C(C(=O)O)=C(COC(N)=O)CS[C@@H]21 [CEFOXITIN] | > 256 mg/L | 128 mg/L (≈ 299 µM) | 128 mg/L (≈ 299 µM) | > 256 mg/L | 48 mg/L (≈ 112 µM) | 3 mg/L (≈ 7.02 µM) | 32 mg/L (≈ 74.9 µM) | 128 mg/L (≈ 299 µM) | 96 mg/L (≈ 225 µM) | 6 mg/L (≈ 14 µM) | > 256 mg/L | > 256 mg/L | 6 mg/L (≈ 14 µM) | 3 mg/L (≈ 7.02 µM) | 64 mg/L (≈ 150 µM) | > 256 mg/L | > 256 mg/L | 96 mg/L (≈ 225 µM) | 6 mg/L (≈ 14 µM) | 128 mg/L (≈ 299 µM) | MIC (Klebsiella pneumoniae [25]): 256 mg/L (≈ 599 µM); MIC (Klebsiella pneumoniae [26]): 256 mg/L (≈ 599 µM); MIC (Klebsiella pneumoniae [12]): 4 mg/L (≈ 9.36 µM); MIC (Klebsiella pneumoniae [17]): 24 mg/L (≈ 56.1 µM); MIC (Klebsiella pneumoniae [20]): 4 mg/L (≈ 9.36 µM); MIC (Klebsiella pneumoniae [22]): 3 mg/L (≈ 7.02 µM)
4 | CO/N=C(\C(=O)N[C@@H]1C(=O)N2C(C(=O)[O-])=C(C[N+]3(C)CCCC3)CS[C@H]12)c1csc(N)n1 [CEFEPIME] | > 256 mg/L | > 256 mg/L | > 256 mg/L | > 256 mg/L | > 256 mg/L | – | > 256 mg/L | > 256 mg/L | > 256 mg/L | 96 mg/L (≈ 200 µM) | > 256 mg/L | > 256 mg/L | 48 mg/L (≈ 99.9 µM) | 0.047 mg/L (≈ 0.0978 µM) | > 256 mg/L | > 256 mg/L | > 256 mg/L | > 256 mg/L | 48 mg/L (≈ 99.9 µM) | > 256 mg/L | –
5 | C[C@H]1[C@H](NC(=O)/C(=N\OC(C)(C)C(=O)O)c2csc(N)n2)C(=O)N1S(=O)(=O)O [AZTREONAM] | > 256 mg/L | > 256 mg/L | > 256 mg/L | > 256 mg/L | > 256 mg/L | > 256 mg/L | – | > 256 mg/L | > 256 mg/L | > 256 mg/L | > 256 mg/L | > 256 mg/L | > 256 mg/L | 0.064 mg/L (≈ 0.147 µM) | > 256 mg/L | > 256 mg/L | > 256 mg/L | > 256 mg/L | > 256 mg/L | > 256 mg/L | MIC (Klebsiella pneumoniae [25]): > 256 mg/L; MIC (Klebsiella pneumoniae [26]): > 256 mg/L; MIC (Klebsiella pneumoniae [12]): 0.25 mg/L (≈ 0.574 µM); MIC (Klebsiella pneumoniae [20]): > 256 mg/L
6 | C[C@@H](O)[C@H]1C(=O)N2C(C(=O)O)=C(S[C@@H]3CN[C@H](C(=O)N(C)C)C3)[C@H](C)[C@H]12 [MEROPENEM] | 12 mg/L (≈ 31.3 µM) | 1.5 mg/L (≈ 3.91 µM) | 1 mg/L (≈ 2.61 µM) | 2 mg/L (≈ 5.22 µM) | 1.5 mg/L (≈ 3.91 µM) | 0.047 mg/L (≈ 0.123 µM) | 1 mg/L (≈ 2.61 µM) | 1 mg/L (≈ 2.61 µM) | 1.5 mg/L (≈ 3.91 µM) | 0.094 mg/L (≈ 0.245 µM) | 1 mg/L (≈ 2.61 µM) | 12 mg/L (≈ 31.3 µM) | 0.094 mg/L (≈ 0.245 µM) | 0.032 mg/L (≈ 0.0834 µM) | 4 mg/L (≈ 10.4 µM) | 1 mg/L (≈ 2.61 µM) | 1 mg/L (≈ 2.61 µM) | 0.75 mg/L (≈ 1.96 µM) | 0.064 mg/L (≈ 0.167 µM) | 1 mg/L (≈ 2.61 µM) | MIC (Klebsiella pneumoniae [25]): 1 mg/L (≈ 2.61 µM); MIC (Klebsiella pneumoniae [26]): 1 mg/L (≈ 2.61 µM); MIC (Klebsiella pneumoniae [12]): 0.032 mg/L (≈ 0.0834 µM); MIC (Klebsiella pneumoniae [17]): 0.064 mg/L (≈ 0.167 µM); MIC (Klebsiella pneumoniae [20]): 0.064 mg/L (≈ 0.167 µM); MIC (Klebsiella pneumoniae [22]): 0.064 mg/L (≈ 0.167 µM)
7 | CC(C)(O/N=C(\C(=O)N[C@@H]1C(=O)N2C(C(=O)[O-])=C(C[n+]3ccccc3)CS[C@H]12)c1csc(N)n1)C(=O)O [CEFTAZIDIME] | > 32 mg/L | > 32 mg/L | > 32 mg/L | > 32 mg/L | > 32 mg/L | > 32 mg/L | > 32 mg/L | > 32 mg/L | > 32 mg/L | > 32 mg/L | > 32 mg/L | > 32 mg/L | > 32 mg/L | < 0.5 mg/L | > 32 mg/L | > 32 mg/L | > 32 mg/L | > 32 mg/L | > 32 mg/L | > 32 mg/L | MIC (Klebsiella pneumoniae [25]): > 32 mg/L; MIC (Klebsiella pneumoniae [26]): > 32 mg/L; MIC (Klebsiella pneumoniae [12]): < 0.5 mg/L; MIC (Klebsiella pneumoniae [17]): > 32 mg/L; MIC (Klebsiella pneumoniae [20]): > 32 mg/L; MIC (Klebsiella pneumoniae [22]): > 32 mg/L
